From patent publication US20220242870A1, “HETEROCYCLE-FUSED PYRIMIDINE DERIVATIVE AND USE THEREOF” (VORONOI Inc., priority 2019, published 2022)

What was measured:
human FLT3-ITD enzyme = target: T1, human FLT3-ITD enzyme (Homo sapiens, UniProt P36888); assay: FLT3 enzyme inhibitory ability (ADP-Glo kinase assay); format: biochemical; settings: human FLT3-ITD enzyme 10 ng, ATP 10 μM, 25° C. 1 hour
T1 sequence (P36888 1-993): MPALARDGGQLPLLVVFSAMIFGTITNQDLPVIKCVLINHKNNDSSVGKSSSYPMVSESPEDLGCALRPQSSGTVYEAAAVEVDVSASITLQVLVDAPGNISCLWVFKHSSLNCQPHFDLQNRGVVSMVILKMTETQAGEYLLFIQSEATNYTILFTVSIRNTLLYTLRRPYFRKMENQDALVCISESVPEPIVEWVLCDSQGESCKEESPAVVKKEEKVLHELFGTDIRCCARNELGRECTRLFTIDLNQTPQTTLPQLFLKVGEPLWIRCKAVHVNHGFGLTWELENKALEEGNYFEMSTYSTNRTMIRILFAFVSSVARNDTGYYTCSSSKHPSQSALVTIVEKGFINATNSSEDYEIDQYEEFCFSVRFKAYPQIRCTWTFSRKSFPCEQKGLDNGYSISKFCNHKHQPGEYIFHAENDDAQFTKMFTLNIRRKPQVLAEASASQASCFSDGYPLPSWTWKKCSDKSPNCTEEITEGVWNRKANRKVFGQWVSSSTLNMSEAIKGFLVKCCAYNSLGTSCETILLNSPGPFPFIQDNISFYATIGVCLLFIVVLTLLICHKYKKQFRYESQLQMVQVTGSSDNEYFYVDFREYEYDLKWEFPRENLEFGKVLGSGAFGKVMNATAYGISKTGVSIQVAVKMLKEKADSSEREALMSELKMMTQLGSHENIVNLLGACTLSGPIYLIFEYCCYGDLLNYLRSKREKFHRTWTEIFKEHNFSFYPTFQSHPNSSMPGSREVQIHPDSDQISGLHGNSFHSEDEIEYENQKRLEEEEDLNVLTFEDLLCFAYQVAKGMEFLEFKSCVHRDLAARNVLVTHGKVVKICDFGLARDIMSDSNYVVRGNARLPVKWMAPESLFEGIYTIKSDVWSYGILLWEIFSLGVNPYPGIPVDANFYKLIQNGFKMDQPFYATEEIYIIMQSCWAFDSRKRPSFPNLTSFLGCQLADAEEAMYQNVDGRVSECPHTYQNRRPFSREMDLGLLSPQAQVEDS
How it was run: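 Purified human FLT3-ITD (10 ng) with 10 μM ATP and specific substrate in 40 mM Tris-HCl pH 7.4, 20 mM MgCl2, 0.5 mg/mL BSA, 50 μM DTT, 1 h at 25 °C. ADP formation read by ADP-Glo luminescence; IC50 (nM) versus solvent-treated control.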

RS4;11 cells = assay: AML cell proliferation inhibitory activity (CellTiter-Glo); format: cell-based; settings: Homo sapiens, 72 hours
Protocol: (§1) The inhibitory activities of the example compounds according to the present invention on the proliferation of acute myeloid leukemia (AML) cells expressing the FLT3 mutant gene were evaluated. Specifically, RS4;11 and MV4-11 cells as acute myeloid leukemia cells expressing the FLT3 mutant gene were cultured in RPMI-1640 (Invitrogen) adding 10% FBS. The cells were seeded into each well of a clear bottom white 96-well plate (Corning) at 3000 to 5000 cells 24 hours before compound treatment. The compound was diluted in DMSO (diluted each three-fold, to a total of 12 concentrations) and injected at 0.5 μL each so as to be a final concentration of 0.3 nM to 50 μM. After 72 hours of the compound treatment, they were treated with CellTiter-Glo Luminescent Cell Viability assay (Promega) and stored at room temperature for 10 minutes, and luminescence intensities were measured with a reader (SynergyNeo, Biotek) to count viable cells. Each experiment was performed three times repeatedly. The result values were calculated as the cell growth rate (%) compared to the control treated with the solvent. The graph was derived using the GraphPad Prism program (version 5.0), the GI50 (nM) values were calculated, and the results were shown in Table 3 below.

MV4-11 cells = assay: as above; format: cell-based; settings: Homo sapiens, 72 hours
Protocol: as §1

human GST-HPK1 (1-346) = target: T2, human GST-HPK1 (1-346) (Homo sapiens, UniProt Q92918); assay: HPK1 enzyme inhibitory ability (ADP-Glo kinase assay); format: biochemical; settings: human GST-HPK1 3 ng, ATP 3 uM, 25° C. 2 hours
T2 construct: purified human GST-HPK1 (1-346, Signalchem) enzyme; purchased Signalchem
T2 sequence (Q92918 1-346): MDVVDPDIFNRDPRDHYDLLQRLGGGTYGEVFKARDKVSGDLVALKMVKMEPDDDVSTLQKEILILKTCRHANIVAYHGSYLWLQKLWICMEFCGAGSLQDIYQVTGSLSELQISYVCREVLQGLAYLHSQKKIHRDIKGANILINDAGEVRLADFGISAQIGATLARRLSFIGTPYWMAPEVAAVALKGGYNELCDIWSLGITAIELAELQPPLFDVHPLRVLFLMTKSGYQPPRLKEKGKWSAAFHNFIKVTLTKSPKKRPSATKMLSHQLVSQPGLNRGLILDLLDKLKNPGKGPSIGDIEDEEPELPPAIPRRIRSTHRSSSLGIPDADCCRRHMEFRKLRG
How it was run: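 Human GST-HPK1(1-346), 3 ng, reacted with 3 uM ATP and specific substrate in 40 mM Tris-HCl pH 7.4, 20 mM MgCl2, 0.5 mg/mL BSA, 50 uM DTT for 2 h at 25° C. ADP-Glo luminescence read; IC50 (nM) relative to untreated solvent control.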

MCF-7 cells = assay: Breast cancer cell line proliferation inhibitory activity (CellTiter-Glo 2.0); format: cell-based; settings: Homo sapiens, MCF7, 120 hours
How it was run: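 MCF-7 cells exposed to a 12-point, 3-fold dilution series (final 0.00005–10 μM) for 120 h at 37 °C. Viability read by CellTiter-Glo 2.0 luminescence, expressed as percent of vehicle-treated cells. GI50 (nM) derived from the curves.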

| IC50 (human FLT3-ITD enzyme) [nM] | GI50 (RS4;11 cells) [nM] | GI50 (MV4-11 cells) [nM] | IC50 (human GST-HPK1 (1-346)) [nM] | GI50 (MCF-7 cells) [nM] | Compound |
| --- | --- | --- | --- | --- | --- |
| 250 to 500 | > 500 | ≥ 250 |  |  | COc1cc(Nc2nc(N3N=CCC3c3ccccc3)c3sccc3n2)ccc1N1CCN(C)CC1 (stereo not drawn) [Example 40, N-(3-methoxy-4-(4-methylpiperazin-1-yl)phenyl)-4-(5-phenyl-4,5-dihydro-1H-pyrazol-1-yl)thieno[3,2-d]pyrimidin-2-amine] |
| ≥ 250 | > 500 | ≥ 250 |  |  | CCN1CCN(c2ccc(Nc3nc(N4N=CCC4c4ccccc4)c4sccc4n3)c(OC)c2)CC1 (stereo not drawn) [Example 41, N-(4-(4-ethylpiperazin-1-yl)-2-methoxyphenyl)-4-(5-phenyl-4,5-dihydro-1H-pyrazol-1-yl)thieno[3,2-d]pyrimidin-2-amine] |
| 250 to 500 | > 500 | ≥ 250 |  |  | CN(C)CCN(C)c1ccc(Nc2nc(N3N=CCC3c3ccccc3)c3sccc3n2)cc1 (stereo not drawn) [Example 2, N-(2-(dimethylamino)ethyl)-N-methyl-N-(4-(5-phenyl-4,5-dihydro-1H-pyrazol-1-yl)thieno[3,2-d]pyrimidin-2-yl)benzene-1,4-diamine] |
| > 500 | > 500 | 250 to 500 |  |  | CCN(CC)CCOc1c(C)cc(Nc2nc(N3N=CCC3c3ccccc3)c3sccc3n2)cc1C (stereo not drawn) [Example 46, N-(4-(2-(diethylamino)ethoxy)-3,5-dimethylphenyl)-4-(5-phenyl-4,5-dihydro-1H-pyrazol-1-yl)thieno[3,2-d]pyrimidin-2-amine] |
| ≥ 250 | > 500 | ≥ 250 |  |  | CCN1CCN(c2ccc(Nc3nc(N4N=CCC4c4ccccc4)c4sccc4n3)cc2)CC1 (stereo not drawn) [Example 39, N-(4-(4-ethylpiperazin-1-yl)phenyl)-4-(5-phenyl-4,5-dihydro-1H-pyrazol-1-yl)thieno[3,2-d]pyrimidin-2-amine] |
| > 500 | > 500 | > 500 |  |  | CN1CCN(c2ccc(Nc3nc(N4N=CCC4c4cc5ccccc5cn4)c4sccc4n3)cc2)CC1 (stereo not drawn) [Example 32, 4-(5-(isoquinolin-3-yl)-4,5-dihydro-1H-pyrazol-1-yl)-N-(4-(4-methylpiperazin-1-yl)phenyl)thieno[3,2-d]pyrimidin-2-amine] |
| ≥ 250 |  | > 500 | ≥ 250 | > 500 | CN1CCN(c2ccc(Nc3nc(N4OCC[C@H]4c4cccc(F)c4)c4cc[nH]c4n3)cc2)CC1 [Example 76, (S)-4-(3-(3-fluorophenyl)isoxazolidin-2-yl)-N-(4-(4-methylpiperazin-1-yl)phenyl)-7H-pyrrolo[2,3-d]pyrimidin-2-amine] |
| > 500 |  | ≥ 250 | > 500 | > 500 | COc1cc(Nc2nc(N3N=CCC3c3ccccc3)c3sccc3n2)ccc1N1CCC(N2CCN(C)CC2)CC1 (stereo not drawn) [Example 8, N-(3-methoxy-4-(4-(4-methylpiperazin-1-yl)piperidin-1-yl)phenyl)-4-(5-phenyl-4,5-dihydro-1H-pyrazol-1-yl)thieno[3,2-d]pyrimidin-2-amine] |
| ≥ 250 | > 500 | 250 to 500 |  |  | CN1CCN(C(=O)Nc2ccc(Nc3nc(N4N=CCC4c4ccccc4)c4sccc4n3)cc2)CC1 (stereo not drawn) [Example 20, 4-methyl-N-(4-((4-(5-phenyl-4,5-dihydro-1H-pyrazol-1-yl)thieno[3,2-d]pyrimidin-2-yl)amino)phenyl)piperazine-1-carboxamide] |
| ≥ 250 |  | > 500 | ≥ 250 | 250 to 500 | c1ccc([C@@H]2CCON2c2nc(Nc3ccc4c(c3)CCNC4)nc3[nH]ccc23)cc1 [Example 110, (S)-N-(4-(3-phenylisoxazolidin-2-yl)-7H-pyrrolo[2,3-d]pyrimidin-2-yl)-1,2,3,4-tetrahydroisoquinolin-6-amine] |
| 250 to 500 |  | > 500 | > 500 | > 500 | CN1CCN(c2ccc(Nc3nc(N4N=CCC4c4ccccc4)c4sccc4n3)cc2)CC1 (stereo not drawn) [Example 1, N-(4-(4-methylpiperazin-1-yl)phenyl)-4-(5-phenyl-4,5-dihydro-1H-pyrazol-1-yl)thieno[3,2-d]pyrimidin-2-amine] |
| ≥ 250 |  | > 500 | > 500 | > 500 | CN1CCN(c2ccc(Nc3nc(N4OCC[C@H]4c4ccccc4)c4sccc4n3)cc2)CC1 [Example 59, (S)-N-(4-(4-methylpiperazin-1-yl)phenyl)-4-(3-phenylisoxazolidin-2-yl)thieno[3,2-d]pyrimidin-2-amine] |
| 250 to 500 |  | ≥ 250 | ≥ 250 | > 500 | COc1cc(Nc2nc(N3OCC[C@H]3c3ccccc3)c3cc[nH]c3n2)ccc1N1CCC(N2CCN(C)CC2)CC1 [Example 87, (S)-N-(3-methoxy-4-(4-(4-methylpiperazin-1-yl)piperidin-1-yl)phenyl)-4-(3-phenylisoxazolidin-2-yl)-7H-pyrrolo[2,3-d]pyrimidin-2-amine] |
| 250 to 500 |  | > 500 | > 500 | > 500 | COc1cc(Nc2nc(N3N=CCC3c3ccccc3)c3cc[nH]c3n2)ccc1N1CCC(N2CCN(C)CC2)CC1 (stereo not drawn) [Example 69, N-(3-methoxy-4-(4-(4-methylpiperazin-1-yl)piperidin-1-yl)phenyl)-4-(5-phenyl-4,5-dihydro-1H-pyrazol-1-yl)-7H-pyrrolo[2,3-d]pyrimidin-2-amine] |
| ≥ 250 |  | > 500 | ≥ 250 | > 500 | CCN(CC)CCCOc1c(C)cc(Nc2nc(N3OCC[C@H]3c3ccccc3)c3cc[nH]c3n2)cc1C [Example 101, (S)-N-(4-(3-(diethylamino)propoxy)-3,5-dimethylphenyl)-4-(3-phenylisoxazolidin-2-yl)-7H-pyrrolo[2,3-d]pyrimidin-2-amine] |
| ≥ 250 |  | > 500 | > 500 | > 500 | COc1cc(C(=O)N2CCOCC2)ccc1Nc1nc(N2OCC[C@H]2c2ccccc2)c2cc[nH]c2n1 [Example 96, (S)-(3-methoxy-4-((4-(3-phenylisoxazolidin-2-yl)-7H-pyrrolo[2,3-d]pyrimidin-2-yl)amino)phenyl)(morpholino)methanone] |
